The values that follow come from patent publication EP1564305A2, “Means for detecting and treating cancer cells resistant to therapeutic agents” (priority 2004, dated 2005).

In data set [1] the test system is PC3 human HNSCC cell line. As to the kind of experiment: cells. It counts as cell-based. The note with it: MTT, 72h incubation, drug used alone. The procedure:
(§1) The 3-(4,5-dimethylthiazol-2-yl)-2,5-diphenyltetrazolium bromide (MTT) cell proliferation assay was used to determine the growth inhibitory effect of gefitinib on the Hep2, CAL33 and […] human HNSCC cell lines. […] Each measurement was done in quadruplicate and the data were expressed as % proliferation of control cells incubated in the absence of drug.

In data set [2] the test system is CAL33 human HNSCC cell line. As to the kind of experiment: cells. In kind it is cell-based. The note with it: CAL-33, MTT, 72h incubation, drug used alone. The procedure: as §1
The subject of data set [3] is Hep2 human HNSCC cell line. As to the kind of experiment: cells. In kind it is cell-based. As to the method: as §1
The nature of data set [4]: Toxicity in treated xenograft-bearing mice (weight loss, clinical observation). It counts as in vivo, nude mice. Conditions: gefitinib 40 or 120 mg/kg per os 5 days a week; PEITC 20 to 90 mg/kg per os every 2 days. The procedure: (§2) Briefly, tumor xenografts were maintained by successive s.c. transplantation of tumor fragments in 8-week old nude mice. Tumor growth curves were obtained by plotting the mean relative tumor volume (i.e. the volume at a given time divided by the volume at the start of the experiment) from groups of at least 5 mice against time. Gefitinib was administered per os at 40 or 120 mg/kg 5 days a week for 3 to 5 weeks, while PEITC dissolved in corn oil was administered per os at 20 to 90 mg/kg every 2 days.

For data set [5], the system named is human SC131 NSCLC xenograft. In kind it is in vivo, nude mice. As to the method:
(§3) The effect of gefitinib and PEITC alone or in combination on the growth of human tumor xenografts in nude mice was tested according to previously published procedures.
as §2

Data set [6] has as its system human HEP-2 HNSCC xenograft. Set-up: species or system nude mice. The note with it: mouse, in vivo. As to the method:
as §3, §2

Data set [7] relates to human IC14 NSCLC xenograft. As to the kind of experiment: Tumor xenograft growth in nude mice. In kind it is in vivo. Conditions: gefitinib 120 mg/kg per os, 5 days a week for 3 to 5 weeks. As to the method: as §3, §2
In data set [8] the test system is human TEP NSCLC xenograft. As to the kind of experiment: Tumor xenograft growth in nude mice. In kind it is in vivo. Conditions: gefitinib 120 mg/kg per os, 5 days a week for 3 to 5 weeks. As to the method:
as §3, §2

In data set [9] the test system is human IC9 NSCLC xenograft. As to the kind of experiment: Tumor xenograft growth in nude mice. The note with it: gefitinib 120 mg/kg per os, 5 days a week for 3 to 5 weeks. It counts as in vivo. The procedure: as §3, §2
The subject of data set [10] is advanced NSCLC. The note with it: 142 patients with refractory disease; cited from earlier work.
Data set [11] concerns NSCLC. The note with it: gefitinib added to chemotherapy; over 2000 previously untreated NSCLC patients; cited from earlier work.

Broadly, the IC50 is the concentration needed to halve the response being measured.

“Also recorded” adds a separate entry of the source.

On to `S=C=NCCc1ccccc1` [PEITC, Phenylethyl isothiocyanate], for which the IC50 is 490 µM in [1]; 180 µM in [2]; 350 µM in data set [3] (Homo sapiens, HEP-2, MTT, 72h incubation, drug used alone). The “toxicity, judged by absence of weight loss and clinical observation” value in data set [4] was “No toxicity was observed”. Moreover, the “inhibition of tumor growth” value in data set [5] (mouse, in vivo) is listed as “neither gefitinib or PEITC had any antitumor effect”; in data set [6], “neither gefitinib or PEITC had any antitumor effect”.

Regarding `COc1cc2ncnc(Nc3ccc(F)c(Cl)c3)c2cc1OCCCN1CCOCC1` [gefitinib, Gefitinib], the “increase in the IC50 for gefitinib, compared with CAL33 and PC3” value in data set [3] (Hep2 versus CAL33 and PC3) was found to be 4 fold. Moreover, the tumor growth response result in data set [7] is “responded”; in data set [8], “responded”; in [9], “sensitive; also recorded: responded”; in data set [5] (gefitinib 120 mg/kg per os, 5 days a week for 3 to 5 weeks) it was “refractory; also recorded: did not respond”. Also, in [10], the response rate is reported as 10%. For the same compound, the “benefit in survival, tumor response, or time to progression” value in [11] was “no benefit”. Moreover, the “toxicity, judged by absence of weight loss and clinical observation” value in data set [4] is reported as “No toxicity was observed”.
